Results from patent publication US20220033407A1, “N-(pyridin-2-ylsulfonyl)cyclopropanecarboxamide Derivatives and their Use in the Treatment of Disease” (NOVARTIS AG, priority 2018, published 2022).

Target: T1, delF508-CFTR-HRP (Homo sapiens, UniProt P13569, DEL508-508)
T1 construct: expressed in transfected cells
Experiment: Measurement of delF508-CFTR-HRP surface expression in CFBE41o- cells (HRP luminescence);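 as to DelF508-CFTR-HRP Amax %: percent efficacy relative to a reference CFTR corrector compound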
Format: cell-based
Details: for Emax: CFBE41o-, read-out: DelF508-CFTR-HRP Amax %; for EC50: mean of at least two replicates
Excerpt: Measurement of delF508-CFTR-HRP Surface Expression in CFBE41o-Cells
This assay quantifies the cell surface expressions of the mutant CFTR channel using an extracellular HRP tag.
A cellular assay was developed to measure surface expression of horseradish peroxidase (HRP) tagged delF508-CFTR in the human bronchial epithelial immortalized CFBE41o-cell line (Phuan, P. W., et al, (2014) Molecular Pharmacology 86:42-51). Specifically, the HRP sequence was inserted into the fourth extracellular loop of delF508-CFTR and stably expressed in CFBE41o-cells. Cells were seeded in 384 well plate at a density of 5000 cells/well and incubated at 37° C. for 12 to 24 hours in medium (Gibco MEM #11095, 10% FBS, 10 mM HEPES, […], 200 μg/mL G418, 3 μg/mL Puromycin). The delF508-CFTR-HRP expression was induced with 500 ng/mL doxycycline (Sigma D-9891, dissolved in H2O and sterile filtered) in medium and the cells were incubated at 37° C. for 48 h. Old medium was removed and fresh medium was added containing 500 ng/mL doxycycline and unknown test compound at required test concentration in DMSO, not exceeding 0.5% final DMSO concentration. The highest concentration tested was 10 μM with a 10-point concentration response curve using a 3-fold dilution. After addition of compounds, the cells were incubated for 24 h at 37° C. On the final day, cells were washed four times in PBS containing 1 mM MgCl2 and 0.1 mM CaCl2. HRP-Substrate (SuperSignal ELISA Pico, Fisher #37069) 20 μl/well was added and the luminescence signal was determined (Viewlux, Perkin Elmer). Light was emitted upon addition of exogenous HRP-Substrate only when delF508-CFTR-HRP reached the cell surface and the HRP tag was accessible to the HRP-Substrate (note: HRP-Substrate cannot cross the lipid bilayer to reach delF508-CFTR-HRP misfolded within the cell).
The median activity for the lowest concentration of the compounds on each assay plate was calculated and this value was used to normalize the signal for each well on the respective plate. Three replicates at each concentrations for every compound were run to determine one EC50. The median value was determined and used to calculate compound activities as described below. Effective half maximal values (EC50) were calculated for each compound by performing logistic regression on measured dose-response data points using the equation: […]
where “Y” is the observed activity, “Bottom” is the lowest observed value, “Top” is the highest observed value, and the “Hill coefficient” gives the largest absolute value of the slope. The curve fitting is carried out by a curve fitting program implemented at GNF using Matlab (Mathworks). The dose response curves also were used to calculate Fold Change (FC) using the equation: […]
Compound efficacy relative to the reference compound 3-(6-(1-(2,2-difluorobenzo[d][1,3]dioxol-5-yl)cyclopropane-1-carboxamido)-3-methylpyridin-2-yl)benzoic acid was determined using the following formula: […]

T1 sequence (P13569 with tags, fused parts or gaps DEL508-508): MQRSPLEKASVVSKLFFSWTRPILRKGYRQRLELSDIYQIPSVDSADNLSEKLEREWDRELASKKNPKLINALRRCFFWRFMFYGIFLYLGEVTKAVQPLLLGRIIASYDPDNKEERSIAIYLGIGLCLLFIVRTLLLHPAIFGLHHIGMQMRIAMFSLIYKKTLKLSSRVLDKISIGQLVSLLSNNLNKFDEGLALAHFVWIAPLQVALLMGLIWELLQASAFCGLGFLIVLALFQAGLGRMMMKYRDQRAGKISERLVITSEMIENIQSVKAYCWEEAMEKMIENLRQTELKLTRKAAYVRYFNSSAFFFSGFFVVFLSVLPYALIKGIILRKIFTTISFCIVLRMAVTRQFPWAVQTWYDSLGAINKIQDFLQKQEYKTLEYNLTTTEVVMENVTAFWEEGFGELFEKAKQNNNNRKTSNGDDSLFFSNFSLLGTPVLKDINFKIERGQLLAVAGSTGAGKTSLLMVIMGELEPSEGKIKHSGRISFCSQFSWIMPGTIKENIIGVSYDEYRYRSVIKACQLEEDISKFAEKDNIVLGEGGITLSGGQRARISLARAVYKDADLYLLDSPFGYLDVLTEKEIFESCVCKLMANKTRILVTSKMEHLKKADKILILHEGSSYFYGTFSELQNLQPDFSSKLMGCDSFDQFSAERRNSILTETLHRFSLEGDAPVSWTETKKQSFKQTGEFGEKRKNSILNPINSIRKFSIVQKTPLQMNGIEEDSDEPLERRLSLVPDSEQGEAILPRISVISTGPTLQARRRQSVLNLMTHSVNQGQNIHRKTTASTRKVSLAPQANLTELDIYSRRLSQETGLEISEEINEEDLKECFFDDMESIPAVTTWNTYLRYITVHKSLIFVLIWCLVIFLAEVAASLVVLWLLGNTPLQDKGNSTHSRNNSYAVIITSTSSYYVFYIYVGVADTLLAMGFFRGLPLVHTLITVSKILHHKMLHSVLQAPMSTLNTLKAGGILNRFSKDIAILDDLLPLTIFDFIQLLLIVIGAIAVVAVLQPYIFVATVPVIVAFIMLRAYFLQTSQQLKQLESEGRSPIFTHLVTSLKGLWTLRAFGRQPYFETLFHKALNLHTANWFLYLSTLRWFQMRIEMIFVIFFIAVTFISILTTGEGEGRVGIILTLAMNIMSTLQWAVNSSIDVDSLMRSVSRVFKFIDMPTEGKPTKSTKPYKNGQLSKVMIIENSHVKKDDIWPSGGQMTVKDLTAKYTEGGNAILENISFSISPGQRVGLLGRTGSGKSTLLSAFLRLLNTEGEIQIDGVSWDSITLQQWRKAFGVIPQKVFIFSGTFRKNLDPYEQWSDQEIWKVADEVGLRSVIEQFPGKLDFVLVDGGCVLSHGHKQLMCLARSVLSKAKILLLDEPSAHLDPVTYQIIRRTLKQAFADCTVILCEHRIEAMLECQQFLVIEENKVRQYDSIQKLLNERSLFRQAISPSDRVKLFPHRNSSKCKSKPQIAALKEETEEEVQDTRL

Row | Compound | Emax [%] | EC50 [nM] | DelF508-CFTR-HRP Amax % [%]
1 | Cc1ccc(C2CCC(C)(C)OC2)c(OC2(C(=O)NS(=O)(=O)c3cccc(N4CC[C@H](O)C4)n3)CC2)c1 (single isomer, unassigned) [Example 4-24-1] | – | 3620 | 295
2 | CC1(C)CCN(c2ccc(Cl)cc2OC2(C(=O)NS(=O)(=O)c3cccc(N4CCC(C)(O)C4)n3)CC2)CC1 (single isomer, unassigned) [Example 9-39-2, 1-(5-Chloro-2-(4,4-dimethylpiperidin-1-yl)phenoxy)-N-((6-(3-hydroxy-3-methylpyrrolidin-1-yl)pyridin-2-yl)sulfonyl)cyclopropane-1-carboxamide] | – | 840 | 493.9
3 | CC(C)(C)C1CCC(Nc2ccc(Cl)cc2OC2(C(=O)NS(=O)(=O)c3cccc(N4CC[C@H](O)C4)n3)CC2)CC1 (single isomer, unassigned) [Example 9-5-1] | – | 960 | 93.6
4 | CC1(C)CCN(c2ccc(Cl)cc2OC2(C(=O)NS(=O)(=O)c3cccc(N4CCCC(C)(O)C4)n3)CC2)CC1 (single isomer, unassigned) [Example 9-43-1, 1-(5-Chloro-2-(4,4-dimethylpiperidin-1-yl)phenoxy)-N-((6-(3-hydroxy-3-methylpiperidin-1-yl)pyridin-2-yl)sulfonyl)cyclopropane-1-carboxamide] | – | 1170 | 545.9
5 | Cc1ccc(C2CCCCC2)c(OC2(C(=O)NS(=O)(=O)c3cccc(N4CCC(NC(=O)OC(C)(C)C)CC4)n3)CC2)c1 [Example 2-43, Tert-butyl (1-(6-(N-(1-(2-cyclohexyl-5-methylphenoxy)cyclopropanecarbonyl)sulfamoyl)pyridin-2-yl)piperidin-4-yl)carbamate] | 556 | 1120 | –
6 | Cc1ccc(C2CC3(CCC3)C2)c(OC2(C(=O)NS(=O)(=O)c3cccc(N4CC[C@H](O)C4)n3)CC2)c1 [Example 4-19, (S)-N-((6-(3-Hydroxypyrrolidin-1-yl)pyridin-2-yl)sulfonyl)-1-(5-methyl-2-(spiro[3.3]heptan-2-yl)phenoxy)cyclopropane-1-carboxamide] | 626 | 1090 | –
7 | C[C@@]1(O)CCN(c2cccc(S(=O)(=O)NC(=O)C3(Oc4cc(Cl)ccc4C4CC5(CCC5)C4)CC3)n2)C1 (single isomer, unassigned) [Example 7-2-2] | 382 | 880 | –
8 | O=C(NS(=O)(=O)c1cccc(N2CC[C@H](O)C2)n1)C1(Oc2cc(Cl)ccc2-c2ccc3ccoc3c2)CC1 [Example 5-4, (S)-1-(2-(Benzofuran-6-yl)-5-chlorophenoxy)-N-((6-(3-hydroxypyrrolidin-1-yl)pyridin-2-yl)sulfonyl)cyclopropane-1-carboxamide] | 376 | 2060 | –
9 | Cc1ccc(C2CCCCC2)c(OC2(C(=O)NS(=O)(=O)c3cccc(N4CCCC(N)C4)n3)CC2)c1 (stereo not drawn) [Example 2-13, N-((6-(3-Aminopiperidin-1-yl)pyridin-2-yl)sulfonyl)-1-(2-cyclohexyl-5-methylphenoxy)cyclopropanecarboxamide] | 119 | 4610 | –
10 | Cc1ccc(C2CC2C(F)(F)F)c(OC2(C(=O)NS(=O)(=O)c3cccc(N)n3)CC2)c1 (single isomer, unassigned) [Example 1-3-2, N-((6-aminopyridin-2-yl)sulfonyl)-1-(5-methyl-2-(2-(trifluoromethyl)cyclopropyl)phenoxy)cyclopropane-1-carboxamide] | – | 2990 | 260
11 | CC1(C)CCN(c2ccc(Cl)cc2OC2(C(=O)NS(=O)(=O)c3cccc(N4CCC(C)(O)C4)n3)CC2)CC1 (single isomer, unassigned) [Example 9-39-1, 1-(5-Chloro-2-(4,4-dimethylpiperidin-1-yl)phenoxy)-N-((6-(3-hydroxy-3-methylpyrrolidin-1-yl)pyridin-2-yl)sulfonyl)cyclopropane-1-carboxamide] | – | 570 | 726.4
12 | Cc1ccc(C2CC(F)(F)C2)c(OC2(C(=O)NS(=O)(=O)c3cccc(N4CC(C)(O)C4)n3)CC2)c1 [Example 4-3, 1-(2-(3,3-Difluorocyclobutyl)-5-methylphenoxy)-N-((6-(3-hydroxy-3-methylazetidin-1-yl)pyridin-2-yl)sulfonyl)cyclopropanecarboxamide] | 158 | 4520 | –
13 | CC1(O)CCCN(c2cccc(S(=O)(=O)NC(=O)C3(Oc4cc(Cl)ccc4C4CC5(CCC5)C4)CC3)n2)C1 (single isomer, unassigned) [Example 7-8-2, 1-(5-chloro-2-(spiro[3.3]heptan-2-yl)phenoxy)-N-((6-(3-hydroxy-3-methylpiperidin-1-yl)pyridin-2-yl)sulfonyl)cyclopropanecarboxamide] | – | 1020 | 248.0

Now from value to compound:

Row | Emax [%] | EC50 [nM] | DelF508-CFTR-HRP Amax % [%] | Compound
14 | 265 | 2270 | – | CC1(C)CN(c2ccc(Cl)cc2OC2(C(=O)NS(=O)(=O)c3cccc(N4CC[C@H](O)C4)n3)CC2)CC2(CCCC2)O1 [Example 9-33, (S)-1-(5-Chloro-2-(7,7-dimethyl-6-oxa-9-azaspiro[4.5]decan-9-yl)phenoxy)-N-((6-(3-hydroxypyrrolidin-1-yl)pyridin-2-yl)sulfonyl)cyclopropanecarboxamide]
15 | 755 | 550 | – | C[C@]1(O)CCN(c2cccc(S(=O)(=O)NC(=O)C3(Oc4cc(Cl)ccc4N4CCC5(CC4)CC5)CC3)n2)C1 [Example 9-28, (S)-1-(5-Chloro-2-(6-azaspiro[2.5]octan-6-yl)phenoxy)-N-((6-(3-hydroxy-3-methylpyrrolidin-1-yl)pyridin-2-yl)sulfonyl)cyclopropanecarboxamide]
16 | 553 | 410 | – | O=C(NS(=O)(=O)c1cccc(N2CCC(O)(C(F)(F)F)CC2)n1)C1(Oc2cc(Cl)ccc2N2CCC3(CC2)CC3)CC1 [Example 9-31, 1-(5-Chloro-2-(6-azaspiro[2.5]octan-6-yl)phenoxy)-N-((6-(4-hydroxy-4-(trifluoromethyl)piperidin-1-yl)pyridin-2-yl)sulfonyl)cyclopropanecarboxamide]
17 | 408 | 850 | – | O=C(NS(=O)(=O)c1cccc(N2CCC3(CCCO3)CC2)n1)C1(Oc2cc(Cl)ccc2C2CC3(CCC3)C2)CC1 [Example 7-6, N-((6-(1-oxa-8-azaspiro[4.5]decan-8-yl)pyridin-2-yl)sulfonyl)-1-(5-chloro-2-(spiro[3.3]heptan-2-yl)phenoxy)cyclopropanecarboxamide]
18 | 588 | 1350 | – | O=C(NS(=O)(=O)c1cccc(N2C[C@H]3CC[C@@H](O)[C@H]3C2)n1)C1(Oc2cc(Cl)ccc2N2CC3(CCCCC3)C2)CC1 [Example 9-3, 1-(5-chloro-2-(2-azaspiro[3.5]nonan-2-yl)phenoxy)-N-((6-((3aR,4R,6aS)-4-hydroxyhexahydrocyclopenta[c]pyrrol-2(1H)-yl)pyridin-2-yl)sulfonyl)cyclopropane-1-carboxamide]
19 | 13.7 | 10000 | – | O=C(NS(=O)(=O)c1cccc(N2CC[C@H](O)C2)n1)C1(Oc2cc(Cl)ccc2N2CC3(COC3)C2)CC1 [Example 9-23, (S)-1-(5-Chloro-2-(2-oxa-6-azaspiro[3.3]heptan-6-yl)phenoxy)-N-((6-(3-hydroxypyrrolidin-1-yl)pyridin-2-yl)sulfonyl)cyclopropanecarboxamide]
20 | 234 | 1550 | – | Cc1ccc(N2CCC(C)(C)CC2)c(OC2(C(=O)NS(=O)(=O)c3cccc(N)n3)CC2)c1 [Example 9-44, N-((6-Aminopyridin-2-yl)sulfonyl)-1-(2-(4,4-dimethylpiperidin-1-yl)-5-methylphenoxy)cyclopropane-1-carboxamide]
21 | 840 | 440 | – | CC(C)(C)C1(O)CCN(c2cccc(S(=O)(=O)NC(=O)C3(Oc4cc(Cl)ccc4C4CC5(CCC5)C4)CC3)n2)CC1 [Example 7-4, N-((6-(4-(tert-butyl)-4-hydroxypiperidin-1-yl)pyridin-2-yl)sulfonyl)-1-(5-chloro-2-(spiro[3.3]heptan-2-yl)phenoxy)cyclopropanecarboxamide]
